In US20240101572A1, “DIHYDROOXADIAZINONE COMPOUND AND PHARMACEUTICAL USE THEREOF” (Japan Tobacco Inc., priority 2022, published 2024):

Experiments:
full-length human PLD1 = full-length human PLD1 (Homo sapiens (Human), UniProt Q13393); test: Evaluation of human PLD1 enzyme inhibitory activity (Amplex Red / choline oxidase fluorescence); format: biochemical; conditions: full-length human PLD1 enzyme; read-out: PLD1 IC50
Outline: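 Fluorescence read-out couples choline to Amplex Red via choline oxidase and peroxidase after a 60 min room-temperature reaction. Enzyme: FLAG-tagged full-length human PLD1 from Expi293F cells, anti-FLAG purified; substrate diheptanoyl phosphatidylcholine; HEPES pH 7.5 assay buffer with 0.01% NP-40, 0.1% BSA, 5% DMSO final.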

full-length human PLD2 = full-length human PLD2 (Homo sapiens (Human), UniProt O14939); test: Evaluation of human PLD2 enzyme inhibitory activity (Amplex Red / choline oxidase fluorescence); format: biochemical; conditions: full-length human PLD2 enzyme; read-out: PLD2 IC50
Sequence of full-length human PLD2 (O14939 whole entry): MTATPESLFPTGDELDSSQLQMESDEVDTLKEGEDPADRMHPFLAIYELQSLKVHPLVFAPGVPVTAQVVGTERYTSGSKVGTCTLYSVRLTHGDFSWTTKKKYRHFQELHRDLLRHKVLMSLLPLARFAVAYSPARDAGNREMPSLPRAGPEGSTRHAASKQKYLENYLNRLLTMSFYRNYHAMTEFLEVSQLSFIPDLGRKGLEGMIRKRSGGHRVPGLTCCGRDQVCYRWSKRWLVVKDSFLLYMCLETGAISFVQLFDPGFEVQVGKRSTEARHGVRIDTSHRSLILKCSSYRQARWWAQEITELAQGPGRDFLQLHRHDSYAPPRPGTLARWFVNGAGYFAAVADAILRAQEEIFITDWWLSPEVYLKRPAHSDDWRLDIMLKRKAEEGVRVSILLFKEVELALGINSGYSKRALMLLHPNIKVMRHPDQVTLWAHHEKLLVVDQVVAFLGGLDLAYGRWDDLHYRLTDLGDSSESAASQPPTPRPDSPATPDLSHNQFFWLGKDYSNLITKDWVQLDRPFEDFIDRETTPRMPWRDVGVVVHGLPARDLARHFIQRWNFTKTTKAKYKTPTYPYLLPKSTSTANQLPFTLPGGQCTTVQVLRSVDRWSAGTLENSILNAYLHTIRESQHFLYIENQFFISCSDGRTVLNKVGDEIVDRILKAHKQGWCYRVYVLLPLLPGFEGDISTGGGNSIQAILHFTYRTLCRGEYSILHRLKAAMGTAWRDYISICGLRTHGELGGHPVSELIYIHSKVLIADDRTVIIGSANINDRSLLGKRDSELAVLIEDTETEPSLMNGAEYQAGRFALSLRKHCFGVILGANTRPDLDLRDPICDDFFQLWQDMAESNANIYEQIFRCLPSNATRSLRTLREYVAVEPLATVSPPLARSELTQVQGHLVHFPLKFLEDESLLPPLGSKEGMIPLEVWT
Outline: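 Released choline was read by Amplex Red fluorescence coupled to choline oxidase and HRP after a 60 min room-temperature reaction. Substrate was diheptanoyl phosphatidylcholine, added as a 6 mmol/L solution, and enzyme was FLAG-tagged full-length human PLD2 from Expi293F, added as a 6 nmol/L solution. Buffer was 50 mM HEPES pH 7.5 with 5% final DMSO.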

Sequence of full-length human PLD1 (Q13393 other isoform, or with tags, fused parts or gaps): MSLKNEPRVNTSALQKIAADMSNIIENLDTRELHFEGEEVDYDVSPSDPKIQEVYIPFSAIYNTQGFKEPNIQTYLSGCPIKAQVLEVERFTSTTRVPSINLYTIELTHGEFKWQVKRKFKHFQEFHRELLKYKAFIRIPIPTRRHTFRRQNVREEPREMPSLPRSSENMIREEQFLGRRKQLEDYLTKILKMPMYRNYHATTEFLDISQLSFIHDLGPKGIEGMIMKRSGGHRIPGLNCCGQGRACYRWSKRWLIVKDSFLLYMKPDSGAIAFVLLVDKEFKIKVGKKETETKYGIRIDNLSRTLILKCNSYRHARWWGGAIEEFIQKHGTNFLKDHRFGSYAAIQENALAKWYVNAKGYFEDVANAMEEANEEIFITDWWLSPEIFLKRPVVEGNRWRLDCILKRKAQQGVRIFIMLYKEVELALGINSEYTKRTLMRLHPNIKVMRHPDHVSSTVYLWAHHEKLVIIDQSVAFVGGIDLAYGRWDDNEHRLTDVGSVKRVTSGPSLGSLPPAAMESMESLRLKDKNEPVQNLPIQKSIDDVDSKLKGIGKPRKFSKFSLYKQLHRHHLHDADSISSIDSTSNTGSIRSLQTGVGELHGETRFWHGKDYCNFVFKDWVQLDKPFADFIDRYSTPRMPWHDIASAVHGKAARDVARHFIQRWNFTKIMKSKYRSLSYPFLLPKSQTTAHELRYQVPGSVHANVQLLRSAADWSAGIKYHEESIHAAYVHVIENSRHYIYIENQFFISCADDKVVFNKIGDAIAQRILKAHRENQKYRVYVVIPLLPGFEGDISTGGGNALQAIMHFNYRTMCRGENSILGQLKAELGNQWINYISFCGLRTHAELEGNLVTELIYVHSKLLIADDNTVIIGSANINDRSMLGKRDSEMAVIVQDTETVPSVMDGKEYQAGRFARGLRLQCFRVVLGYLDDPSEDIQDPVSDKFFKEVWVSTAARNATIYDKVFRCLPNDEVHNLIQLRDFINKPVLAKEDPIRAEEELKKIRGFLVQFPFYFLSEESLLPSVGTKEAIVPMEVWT

| SMILES | IC50 (full-length human PLD1) | IC50 (full-length human PLD2) |
| --- | --- | --- |
| CNC(=O)C(=O)N[C@@H](C)C[C@H]1CC[C@]2(CC1)OC(=O)NN=C2c1cnc(OCC(F)(F)F)cc1C [Example 170] | 19 nM | < 10 nM |
| CNC(=O)C(=O)N[C@@H](C)C[C@H]1CC[C@]2(CC1)OC(=O)NN=C2c1ccc(C#N)cc1Br [Example 57, N^1—((S)-1-(cis-5-(2-bromo-4-cyanophenyl)-2-oxo-1-oxa-3,4-diazaspiro[5.5]undec-4-en-9-yl)propan-2-yl)-N^2-methyloxamide] | 16 nM | < 10 nM |
| C[C@@H](CN1CCC2(CC1)OC(=O)NN=C2c1ccc(C#N)cc1Br)NC(=O)c1cn(C)cn1 [Example 2-060] | 27 nM | 11 nM |
| C[C@@H](CN1CCC2(CC1)OC(=O)NN=C2c1ccc(F)cc1Cl)NC(=O)c1ncn[nH]1 [Example 95] | 8060 nM | 6160 nM |
| COc1cc(C(=O)N[C@@H](C)C[C@H]2CC[C@]3(CC2)OC(=O)NN=C3c2ccc(F)cc2Br)on1 [Example 69] | < 10 nM | < 10 nM |
| C[C@@H](C[C@H]1CC[C@]2(CC1)OC(=O)NN=C2c1ccc(S(C)(=O)=O)cc1Br)NC(=O)c1ccccc1 [Example 49] | 31 nM | 11 nM |
| CNC(=O)C(=O)N[C@@H](C)C[C@H]1CC[C@]2(CC1)OC(=O)NN=C2c1ccccc1Br [Example 26] | < 10 nM | < 10 nM |
| CNC(=O)C(=O)N[C@@H](C)C[C@H]1CC[C@]2(CC1)OC(=O)NN=C2c1ccc(F)cc1Cl [Example 44] | 18 nM | < 10 nM |
| [2H]C([2H])([2H])NC(=O)C(=O)NC(C)CN1CCC2(CC1)OC(=O)NN=C2c1cc(C#N)ccc1Cl (stereo not shown) [Example 2-008] | 62 nM | 11 nM |
| C[C@@H](C[C@H]1CC[C@]2(CC1)OC(=O)NN=C2c1cc(Cl)ccc1Cl)NC(=O)c1cc2ccccn2c1 [Example 323] | 10 nM | < 10 nM |
| COC(=O)N[C@@H](C)C[C@H]1CC[C@]2(CC1)OC(=O)NN=C2c1ccc(F)cc1C [Example 156] | 236 nM | 412 nM |
| Cc1cc(C(=O)N[C@@H](C)C[C@H]2CC[C@]3(CC2)OC(=O)NN=C3c2cc(OC(F)(F)F)ccc2Br)[nH]n1 [Example 304] | < 10 nM | < 10 nM |
| CNC(=O)C(=O)N[C@@H](C)C[C@H]1CC[C@]2(CC1)OC(=O)NN=C2c1ncccc1C [Example 147] | 32 nM | 32 nM |
| Cc1cc(C(=O)N[C@@H](C)C[C@H]2CC[C@]3(CC2)OC(=O)NN=C3c2cnc(N3C[C@@H]4C[C@H]3CO4)cc2Cl)[nH]n1 [Example 240] | 13 nM | < 10 nM |
| COc1cc(C)c(C2=NNC(=O)O[C@]23CC[C@@H](C[C@H](C)NC(=O)NCc2ccccc2F)CC3)cn1 [Example 234] | 247 nM | 474 nM |
| Cc1cc(C(=O)N[C@@H](C)C[C@H]2CC[C@]3(CC2)OC(=O)NN=C3c2ccc(F)cc2)[nH]n1 [Example 5] | 164 nM | 171 nM |
| CNC(=O)C(=O)N[C@@H](C)C[C@H]1CC[C@]2(CC1)OC(=O)NN=C2c1ccc(F)cc1CCC(F)(F)F [Example 135] | 86 nM | 33 nM |
| Cc1cc(C(=O)N[C@@H](C)CN2CCC3(CC2)OC(=O)NN=C3c2ccc(F)cc2Br)[nH]n1 [Example 3] | 27 nM | < 10 nM |
| CNC(=O)C(=O)N[C@@H](C)CN1CCC2(CC1)OC(=O)NN=C2c1cc(C#N)ccc1Cl [Example 2-006] | 56 nM | 11 nM |
| CNC(=O)C(=O)N[C@@H](C)C[C@H]1CC[C@]2(CC1)OC(=O)NN=C2c1ccc(OC(F)F)cc1Br [Example 140] | < 10 nM | < 10 nM |
| CNC(=O)C(=O)N[C@@H](C)CN1CCC2(CC1)OC(=O)NN=C2c1c(F)cccc1Br [Example 2-018] | 22 nM | < 10 nM |
| CNC(=O)C(=O)N[C@@H](C)C[C@H]1CC[C@]2(CC1)OC(=O)NN=C2c1cc(C(=O)N2CC(F)(F)C2)ccc1Br [Example 2-057] | 18 nM | < 10 nM |
| C[C@@H](C[C@H]1CC[C@]2(CC1)OC(=O)NN=C2c1ccc(F)cc1Br)NC(=O)C1(O)COC1 [Example 123] | 202 nM | 502 nM |
| Cc1cc(C(=O)N[C@@H](C)C[C@H]2CC[C@]3(CC2)OC(=O)NN=C3c2cnc(N3CCC(F)(F)C3)cc2C)[nH]n1 [Example 238] | 12 nM | < 10 nM |
| CNC(=O)C(=O)N[C@@H](C)CN1CCC2(CC1)OC(=O)NN=C2c1cccn2nccc12 [Example 2-039] | 153 nM | 264 nM |
| CNC(=O)C(=O)N[C@@H](C)C[C@H]1CC[C@]2(CC1)OC(=O)NN=C2c1ccc(Br)cc1C [Example 161] | 20 nM | 13 nM |
